# Test results reported in article PMC3836662, “New Antimalarial Hits from Dacryodes edulis (Burseraceae) - Part I: Isolation, In Vitro Activity, In Silico “drug-likeness” and Pharmacokinetic Profiles” (PLoS ONE, 2013).
# Entries after “also recorded” stand apart in the source; their conditions may differ. Read-outs that look alike come from different tables or passages of the source.
# Tests used:
# [1] = tested on: 3D7 (chloroquine-susceptible) strain of Plasmodium falciparum; test: Antiplasmodial screen, parasite lactate dehydrogenase (pLDH) assay, 3D7 strain; assay type: cell-based; conditions: for Activity against 3D7 IC95 / Activity against 3D7 IC50: P. falciparum 3D7, pLDH assay; for IC50: Plasmodium falciparum
# Description: (§1) The 3D7 (MRA-102), and Dd2 (MRA-615) strains were kindly donated by BEI-Resources (MR4, Manassas, VA, USA), and maintained in continuous culture, with back up stored in liquid nitrogen.
# (§2) The laboratory strains of P. falciparum were grown and maintained in culture using the method of Trager and Jensen with some modifications. All the chemicals except Albumax II (Gibco; Invitrogen, USA), were ordered from Sigma-Aldrich Inc (Germany). The cultures were monitored and parasitemia assessed using both fluorescence (acridine orange) and normal light (Giemsa stain) microscopes.
# (§3) The antiplasmodial screen was carried out in 96-well microtitration plates as described by Desjardins et al. with some modifications. The different drug stock solutions were prepared by predisolving the powder in DMSO (200 µL for a final volume of 10 mL stock solution) and subsequently with the culture medium. The parasitaemia was measured using the parasite lactate dehydrogenase (pLDH) assay as previously described.
# (§4) Each product was tested in triplicate, in two to three separate experiments, giving a total of six to nine repeats per product and per concentration tested. The IC50 and CC50 values obtained from the replicates were pooled and expressed as geometric mean IC50 and standard deviation. The different means were compared among themselves by independent samples t-test.
# [2] = tested on: Dd2 (multidrug-resistant) strain of Plasmodium falciparum; test: Antiplasmodial screen, parasite lactate dehydrogenase (pLDH) assay, Dd2 strain; assay type: cell-based; conditions: for Activity against Dd2 IC95 / Activity against Dd2 IC50: P. falciparum Dd2, pLDH assay; for IC50: Plasmodium falciparum
# Description: as §1, §2, §3, §4
# Dd2 [3] = test: Stage-specific activity: variation of IC50 with exposure time, sorbitol-synchronized ring stage culture; assay type: cell-based; conditions: Plasmodium falciparum
# Description: As a preliminary study towards the understanding of the mechanisms of action of the active drugs, the stage-specific activity of the products was studied by investigation of the variation in IC50 values with exposure time.
# Figure 2 Variation of IC50 against Dd2 with exposure time. […] The IC50 values presented were obtained from two distinct experiments run in duplicate each.
# [4] = tested on: LLC-MK2 monkey kidney epithelial cells; test: Cytotoxicity on LLC-MK2 cells; assay type: cell-based; conditions: SI = CC50/IC50, LLC-MK2 vs Dd2
# Description: (§5) The cytotoxicity of the extracts and pure compounds were estimated on LLC-MK2 monkey kidney epithelial cells as previously described with some modifications. The cell line was ordered from the American Type Culture Collection (ATCC, Manassas, Virginia, USA) and maintained in continuous culture.
# as §4
# (§6) The selectivity index defined as SI = CC50/IC50 was equally considered for compounds with mild cytotoxicity with SI<10 for toxic products. Based on these cut-off values, all products isolated from D. edulis in the present study were non-toxic against the LLC-MK2 cell-line.
# [5] = Cytotoxicity on LLC-MK2 cells; assay type: cell-based, monkey; conditions: monkey, LLC-MK2 cells, read-out: Cytotoxicity against LLC-MK2 CC50
# Description: as §5, §4, §6
# Dd2 [6] = test: Drug-interaction study, fixed-ratio combinations, FIC / Combination Index / isobologram; assay type: cell-based, Plasmodium falciparum; conditions: for Increase of activity on combining DES4 and quinine: DES4 plus quinine
# Description: From the results obtained with individual drugs, a stock solution of 32 x IC50 of each drug was prepared and used in preparing a series of six combinations ([1]–[6]) containing 5:0, 4:1, 3:2, 2:3, 1:4 and 0:5 proportions volume:volume of Drug A versus Drug B respectively. Each of these formulations were then tested and their different inhibitory concentrations determined separately.
# IC50 values obtained for the different drug mixtures were used to calculate the Fractional Inhibitory Concentration (FIC) for each drug as described previously. FIC-A for example measures how much the presence of Drug B affects the activity of Drug A in the mixture, and vis versa.
# FIC−A=IC50−A(comb.)/IC50−A(alone)
# FIC−B=IC50−B(comb.)/IC50−B(alone)
# A graph was constructed with the axes representing the mean FIC of linear scales, with mean FIC-A on the x axis and FIC-B on the y axis. When the combination is additive, the isobole which is the line joining the points that represent all the (x, y) points is straight. Synergistic combinations give concave isoboles, and antagonistic combinations give convex isoboles.
# CI values were therefore calculated separately for both the drugs present in combinations 2 through 5; combinations 1 and 6 containing Drug A and Drug B alone. In addition to analyzing the result obtained with each drug combination formula, an overall mean CI value for the four combinations was determined to conclude on the interaction patterns of the two drugs being tested. Synergy or antagonism was defined as a mean CI< or >1, respectively, and lack of interaction (also termed additivity) defined as CI= 1 [21].
# IC50 values were used to calculate the Fractional Inhibitory Concentration (FIC) for each drug as described previously. FIC-A measures how much the presence of a Drug B affects the activity of Drug-A in the mixture. […] Statistical significance was defined as p<0.05. A graph was constructed with the axes representing the mean FIC of linear scales, with mean FIC-A on the x-axis and FIC-B on the y-axis. When the combination is additive, the isobole which is the line joining the points that represent all the (x, y) points is straight. Synergistic combinations give concave isoboles, and antagonistic combinations give convex isoboles.
# The overall mean CI value for the four combinations formulae was finally determined and synergy or antagonism between the two drugs in combination, defined as a mean CI< or >1, respectively, lack of interaction or additivity defined as CI = 1 [21].
# [7] = 3D7, P. falciparum 3D7, pLDH assay, read-out: Activity against 3D7 IC50
# [8] = DD2, P. falciparum Dd2, pLDH assay, read-out: Activity against Dd2 IC50
# [9] = 3D7, read-out: Activity against 3D7 IC50, P. falciparum 3D7, pLDH assay
# [10] = Dd2, synchronized ring stage, 24 hours exposure, read-out: IC50 against Dd2, exposure time 24 hours
# [11] = Dd2, synchronized ring stage, 48 hours exposure, read-out: IC50 against Dd2, exposure time 48 hours
# [12] = DES4 combined with quinine, Dd2
Compound,Activity against 3D7 IC95 [1] [µg/mL],"IC50 [1, 7] [µg/mL]",Activity against Dd2 IC95 [2] [µg/mL],"IC50 [2, 8] [µg/mL]",Activity against 3D7 IC50 [1] [µg/mL],Activity against Dd2 IC50 [2],Selectivity index/Dd2 [4],CC50 [5] [µg/mL],also measured
"CO[C@H]1O[C@@H]2O[C@@]3(C)CC[C@H]4[C@H](C)CC[C@@H]([C@H]1C)[C@@]24OO3 [ART, artemether, reference compound]",0.08 ± 0.02,0.02 ± 0.01,0.12 ± 0.09,0.03 ± 0.01,–,–,–,–,–
"C[C@@H]1O[C@@H](Oc2c(-c3ccc(O)c(O)c3)oc3cc(O)cc(O)c3c2=O)[C@H](O)[C@H](O)[C@H]1O [DES1, Quercitrin]",18.53 ± 3.13,–,23.82 ± 6.35,–,5.96 ± 0.51,below 10 µg/mL,> 44,> 100,"IC50 [1, 9]: < 10 µg/mL; IC50 (Dd2 [3]; DD2, 24 h, read-out: IC50 against Dd2, exposure time 24 hours): 1.41 µg/mL; IC50 (Dd2 [3]; DD2, 48 h, read-out: IC50 against Dd2, exposure time 48 hours): 2.19 µg/mL"
"C[C@@H]1O[C@@H](Oc2c(-c3ccc(O)cc3)oc3cc(O)cc(O)c3c2=O)[C@H](O)[C@H](O)[C@H]1O [DES2, Afzelin]",13.64 ± 0.48,–,35.03 ± 3.52,–,–,inactive,> 5,> 100,"IC50 [1, 9]: 4.59 ± 0.21 µg/mL; IC50 ([2]; DD2, read-out: Activity against Dd2 IC50, P. falciparum Dd2, pLDH assay): 19.3 ± 1.56 µg/mL"
"O=c1c(O)c(-c2ccc(O)c(O)c2)oc2cc(O)cc(O)c12 [DES3, Quercetin]",15.19 ± 3.88,< 10,15.96 ± 4.79,< 10,6.07 ± 0.34,5.91 ± 0.97 µg/mL,> 17,> 100,–
"COC(=O)c1cc(O)c(O)c(O)c1 [DES4, methyl 3,4,5-trihydroxybenzoate]",2.58 ± 2.04,0.37 ± 0.07,5.89 ± 0.95,–,–,–,> 182,> 100,"IC50 (Dd2 [3]; [10]): 6.32 µg/mL; IC50 (Dd2 [3]; [11]): 0.56 µg/mL; Combination Index, overall value (Dd2 [6]; DES4 combined with artemether): 1.10; Interaction pattern with artemether (Dd2 [6]; DES4 combined with artemether): additivity; also recorded: only additive effects; Combination Index, Combination 2 (Dd2 [6]; DES4 combined with quinine, Combination 2 (4:1), Dd2): 1.05; Combination Index, mean value (Dd2 [6]; [12]): 0.65; Interaction pattern with quinine (Dd2 [6]; [12]): synergy; also recorded: synergistic interactions; Increase of activity on combining DES4 and quinine (Dd2 [6]): 3 fold"
"CC[C@H](CCC(C)C1CCC2C3CC=C4C[C@@H](O[C@@H]5O[C@H](CO)[C@@H](O)[C@H](O)[C@H]5O)CC[C@]4(C)C3CC[C@]12C)C(C)C (stereo partly drawn) [DES5, sitosterol 3-O-β-D-glucopyranoside sterol]",4.38 ± 0.87,–,21.35 ± 0.44,< 10,1.90 ± 0.22,5.34 ± 0.98 µg/mL,> 18,–,Activity against 3D7 IC50 ([1]; listed as Sitosterol 3-O-β-D-glucopyranoside): below 10 µg/mL; CC50 ([5]; LLC-MK2 monkey kidney epithelial cells): > 100 µg/mL
"C=C[C@H]1C[N@@]2CC[C@H]1C[C@H]2[C@H](O)c1ccnc2ccc(OC)cc12 [QN, Quinine sulphate, reference compound]",0.48 ± 0.10,0.13 ± 0.01,0.38 ± 0.08,0.12 ± 0.01,–,–,–,–,IC50 (Dd2 [3]; [10]): 0.21 µg/mL; IC50 (Dd2 [3]; [11]): 0.18 µg/mL; Increase of activity on combining DES4 and quinine (Dd2 [6]): 6 fold
